Each structure is given as a SMILES string. Bounds are passed on as bounds.

These results are taken from PMC8998803, “Fragment-Based Discovery of AF9 YEATS Domain Inhibitors” (International Journal of Molecular Sciences, 2022).

Test [1] has as its target T1, AF9 YEATS domain (Homo sapiens, UniProt P42568).
T1 construct: DNA fragment encoding AF9 YEATS domain (residues 1–138) was amplified and cloned into the pET28a vector; made in house; host or cells: Escherichia coli BL21 (DE3)
T1 sequence (P42568 1-138): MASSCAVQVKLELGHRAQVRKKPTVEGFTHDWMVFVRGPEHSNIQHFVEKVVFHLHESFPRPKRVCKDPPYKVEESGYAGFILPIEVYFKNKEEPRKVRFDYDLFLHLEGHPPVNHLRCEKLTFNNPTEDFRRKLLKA
Nature of the test: NMR chemical shift perturbation titration of 15N-labeled AF9 YEATS domain. To be noted: for Kd: from dose-dependent chemical shift perturbations, ± fitting error; for LE: ligand efficiency, Table 1. It counts as binding. The source says:
(§1) To further validate the results of ligand-observed fragment-based screening, we titrated these hits with the ^15N-labeled AF9 YEATS domain (Figure 1B). The backbone chemical shift assignment was retrieved from the literature. […] These residues were then mapped to the surface of the crystal structure of the AF9 YEATS domain in complex with H3K9ac (PDB code: 4TMP), which indicated the binding of these hits to the same pocket for acyl-lysine recognition (Figure 1D). The binding affinity of hit 2 was then determined by best fitting the dose-dependent CSPs of these residues (Figure 1E) at 0.07 ± 0.01 mM (fitting error was used henceforth unless specifically annotated). The affinity of hit 2 was further validated using isothermal titration calorimetry (ITC) (Figure 1F). The binding affinity of the other hits was determined using the same approach (Table 1). These four hits probably bound to the same pocket since they shared the same pharmacophore.
The ^15N-labeled AF9 YEATS domain was concentrated to 0.1 mM in phosphate buffered saline at pH 6.8. The HSQC spectra were acquired on the Agilent 500 MHz spectrometer at a ligand/protein molar ratio varying from 0 to 8.0. The dissociation constant Kd was best-fitted using the following equation assuming a 1:1 binding mode, Δδobs=ΔδmaxPt+Lt+Kd−Pt+Lt+Kd^2−4PtLt/2Pt where Pt and Lt represented the total concentrations of the protein and the ligand, respectively, and the Δδobs denoted the observed chemical shift changes relative to the free-form protein. Δδobs was defined as 1/2δH2+0.04δN2 , where δH and δN were the chemical shift changes in the ^1H and ^15N dimension, respectively. The maximum of the chemical shift perturbations Δδmax and the dissociation constant Kd were best-fitted from the dose-dependent chemical shift changes

Another test has as its target T2, ENL YEATS domain (Homo sapiens, UniProt Q03111).
T2 construct: determined from the dose-dependent chemical shift perturbations of ENL YEATS
T2 sequence (Q03111 1-138 limits assumed): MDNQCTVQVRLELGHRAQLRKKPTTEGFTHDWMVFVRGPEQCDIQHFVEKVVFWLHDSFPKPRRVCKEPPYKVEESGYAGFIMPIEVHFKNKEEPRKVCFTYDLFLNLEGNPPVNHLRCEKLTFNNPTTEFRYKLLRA
Nature of the test: NMR chemical shift perturbation titration of ENL YEATS. The test is classed as binding. To be noted: determined by CSPs, read-out: affinity. The method, then:
(§2) It is, therefore, difficult to achieve a high selectivity between AF9 and ENL YEATS domains, as underscored by the similar affinity of compound 10 to both AF9 and ENL (38 ± 6 μM) determined by CSPs (Figure 4C), even though compound 10 represented a new chemotype with a binding mode distinct from that of SGC-iMLLT (Figure 4B). […] Therefore, compound 10 was a dual inhibitor of AF9/ENL YEATS domains.
(§3) Figure 4 Selectivity analysis of AF9 inhibitors among human YEATS domains and antiproliferation activities. (A) Sequence alignment of human YEATS domains. Conserved residues are highlighted, with residues interacting with H3K9ac annotated. (B) Superimposition of AF9 and ENL YEATS domain structures in complex with 10 (carbon atom in magenta) and SGC-iMLLT (PDB code: 6HT1), respectively. The hydrogen bonds are delineated by dashed lines. (C) The binding affinity of 10 determined from the dose-dependent chemical shift perturbations of ENL YEATS. The Kd value with the fitting error is annotated. (D) Chemical shift perturbations of the ^15N-labeled YEATS2 YEATS domain induced by 10. (E) The binding affinity of 10 estimated from best fitting of the dose-dependent chemical shift perturbations of the YEATS2 YEATS domain. (F) Viability of MCF7 and AF9-sensitive HGC-27 cells upon treatment with inhibitors at a single dose of 100 μM. […]

In the next test the test system is NCL-H1975 cells. In words: Cell viability, NCL-H1975. The test is classed as cell-based. Particulars: single dose of 100 μM; AF9-sensitive cell line.
The next test deals with MCF7 cells. Nature of the test: Cell Counting Kit-8 (CCK-8) cell viability assay, MCF7. Particulars: single dose of 100 μM. For orientation: Tetrazolium dyes change colour on reduction, which living cells bring about.
The target of the next test is T3, YEATS2 YEATS domain (Homo sapiens, UniProt Q9ULM3).
T3 construct: Chemical shift perturbations of the ^15N-labeled YEATS2 YEATS domain induced by 10
T3 sequence (Q9ULM3 200-345 limits assumed): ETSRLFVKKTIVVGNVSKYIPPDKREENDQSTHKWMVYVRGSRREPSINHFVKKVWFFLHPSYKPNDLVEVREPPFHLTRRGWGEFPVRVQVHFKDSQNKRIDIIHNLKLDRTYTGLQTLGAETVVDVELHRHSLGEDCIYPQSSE
Nature of the test: NMR chemical shift perturbation titration of 15N-labeled YEATS2 YEATS domain. The test is classed as binding. The method, then: as §2, §3

A further test deals with HGC-27 cells. Nature of the test: Cell Counting Kit-8 (CCK-8) cell viability assay, HGC-27. To be noted: AF9-sensitive HGC-27 cells.
The test system of test [2] is the rest of the 59 cell lines. Also on record: method as in PMID 30288907. Particulars: cited from earlier work.
The subject of the next test is MCF7. Also on record: method as in PMID 30288907. Particulars: cited from earlier work.
Test [3] deals with T1, AF9 YEATS domain. In words: Isothermal titration calorimetry with AF9 YEATS domain. It counts as binding.
Excerpt: as §1
All ITC titrations were carried out on a MicroCal ITC200 calorimeter (Malvern Instruments Ltd., Malvern, UK) at 298K. The AF9 YEATS domain protein was dialyzed to 20 mM Tris buffer containing 150 mM NaCl at pH 7.4. The concentration of the protein was determined by UV-Vis spectroscopy. The compounds were dried and dissolved in the same buffer. The concentrations of compounds were determined using quantitative NMR30. The ITC data were analyzed using Origin 2019 and best-fitted to the one-site binding model to determine the enthalpies and affinity constants. The binding entropies were calculated using the Gibbs free energy equation.
Background: ITC needs no label: the signal is the heat of the interaction.

Protocol for HGC-27 cells: (§4) We further assessed the cellular activity of these inhibitors in cancer cells.
(§5) Human MCF7 and HGC-27 cell lines were cultured at 37 °C in a humidified 5% CO2 atmosphere in DMEM (Gibco, Stony Plain, AB, Canada) medium supplemented with 10% fetal bovine serum (FBS) (Gibco) and 1 × penicillin/streptomycin (Gibco). MCF7 and HGC-27 cells were seeded in 96-well plates with approximately 10^4 cells in 100 μL of the medium and treated with the following conditions: fresh culture medium with DMSO (control) or fresh culture medium with inhibitors at a concentration of 100 μM. Cell viability was measured using a Cell Counting Kit-8 (Purchased from TargetMol, Boston, MA, USA) according to manufacturer’s instructions [45]. The absorbance was read at 450 nm with a microplate reader (CLARIOstar, BMG LABTECH, Ortenberg, Germany). Cell viability was calculated as the ratio of experimental group absorbance vs. control group absorbance.
Protocol for MCF7 cells: as §4, §5

With `O=C(COCc1ccccc1)Nc1c(F)cc(Cl)cc1F` [Compound 14], the “affinity enhancement relative to that of 10” value on AF9 YEATS domain [1] (AF9 YEATS) is recorded as “approximately 30%”. Also, on AF9 YEATS domain [1], the Kd was found to be 26 ± 4 µM and the LE came out at 0.30.
Turning to `COCC(=O)Nc1ccc(CNC(C)=O)cc1` [Compound 8], the Kd at AF9 YEATS domain [1] is 310 ± 4 µM.
Take `O=C(COCc1ccc(F)cc1)Nc1ccc(Cl)cc1` [Compound 12]: on AF9 YEATS domain [1], the Kd turned out to be 87 ± 11 µM and the LE came out at 0.28.
In the same order, the values of `CNC(=O)Cc1ccc(NC(=O)COC)cc1` [Compound 7] are 270 ± 20 µM and 0.29.
For the compound `COCC(=O)Nc1ccc(Cl)c(O)c1` [Compound 6], on AF9 YEATS domain [1], the Kd stood at 61 ± 4 µM and the LE is on record as 0.41. For the same compound, on AF9 YEATS domain [1] (relative to hit 2), the “change of affinity (in words)” value is reported as “did not significantly alter the affinity”.
As to `COCC(=O)Nc1ccc(N)cc1Cl` [Compound 3], on AF9 YEATS domain [1], the Kd amounted to 100 ± 10 µM and the LE came out at 0.39.
Take `O=C(COCc1ccccc1)Nc1ccc(Cl)cc1` [Compound 10]: the Kd at ENL YEATS domain was 38 ± 6 µM; on YEATS2 YEATS domain (estimated from best fitting of dose-dependent chemical shift perturbations) it was over 200 µM; on AF9 YEATS domain [1], 38 ± 6 µM. Moreover, the “effect on NCL-H1975 cells (in words)” value in the test with NCL-H1975 cells was “demonstrated inhibitory effects”. Moreover, in the test with MCF7 cells, the “potency in MCF7 cells (in words)” value is on record as “weak potency”. Also, at YEATS2 YEATS domain (chemical shift of YEATS2 only slightly disturbed), the “binding affinity (in words)” value is on record as “very weak binding affinity”. Moreover, on AF9 YEATS domain [1] (relative to hit 2), the “enhancement of the affinity for the AF9 YEATS domain” value is “approximately two-fold enhancement”. Moreover, the “proliferation of HGC-27 cells (in words)” value with HGC-27 cells is reported as “suppressed the proliferation of AF9-sensitive HGC-27 cells more effectively in a dose-dependent manner”.
In the case of `O=C(COc1ccccc1)Nc1ccc(Cl)cc1` [Compound 11], on AF9 YEATS domain [1], the Kd is 88 ± 30 µM and the LE is recorded as 0.31.
`COCC(=O)Nc1ccc(Cl)cc1` [Compound 5]: at AF9 YEATS domain [1], the Kd stood at 80 ± 60 µM and the LE was 0.43. Besides, the “change of affinity (in words)” value at AF9 YEATS domain [1] (relative to hit 2) is reported as “did not significantly alter the affinity”.
Regarding `COCC(=O)Nc1ccc(C)c(N)c1` [Compound 1], at AF9 YEATS domain [1], the Kd came out at 137 ± 24 µM and the LE is 0.38.
For `C[C@H]1CCCN1Cc1nc2cc(NC(=O)c3ccc4c(cnn4C)c3)ccc2[nH]1` [SGC-iMLLT], the “activities over the rest of the 59 cell lines (in words)” value in [2] was “almost no detectable activities”. Moreover, the “potency in MCF7 (in words)” value with MCF7 was “weak potency”.
As to `COCC(=O)Nc1ccc(N)cc1C` [Compound 4], at AF9 YEATS domain [1], the Kd was found to be 440 ± 100 µM and the LE is reported as 0.33.
With `COCC(=O)Nc1ccc(Cl)c(N)c1` [Compound 2], the ΔH at AF9 YEATS domain [3] (ITC binding enthalpy) is reported as -10 ± 2 kcal/mol. Also, at AF9 YEATS domain [3] (ITC, 1:1 binding mode, 298K), the Kd was 76 ± 10 µM. On AF9 YEATS domain [3] (ITC, entropy calculated using the Gibbs free energy equation), the “-TΔS” value was 4 kcal/mol. For the same compound, on AF9 YEATS domain [1], the Kd was 70 ± 10 µM and the LE stood at 0.41.
Regarding `CNCC(=O)Nc1ccc(CNC(C)=O)cc1` [Compound 9], on AF9 YEATS domain [1], the Kd was 660 ± 70 µM and the LE is given as 0.26.
Taken in the same sequence, the figures for `O=C(COCc1ccccc1O)Nc1ccc(Cl)cc1` [Compound 13] were 70 ± 9 µM and 0.28.
